The conditions of data set [1]: Crystal; DTA.
Data set [2] can be described thus: Molar enthalpy of transition or fusion. The settings on record: Crystal; DSC.

Numbers after ± are expanded uncertainties.

On to `CC[C@H](C)[C@H]1O[C@]2(C=C[C@@H]1C)C[C@@H]1C[C@@H](C/C=C(\C)[C@@H](O[C@H]3C[C@H](OC)[C@@H](O[C@H]4C[C@H](OC)[C@@H](O)[C@H](C)O4)[C@H](C)O3)[C@@H](C)/C=C/C=C3\CO[C@@H]4[C@H](O)C(C)=C[C@@H](C(=O)O1)[C@]34O)O2` [Avermectin B1a], for which, in data set [1], the Normal melting temperature stood at 163.29 ± 0.61 °C. Moreover, the “Molar enthalpy of transition or fusion” value in data set [2] came to 6.91 ± 0.153 kcal/mol.

Source of the values: the NIST ThermoML archive (doi:10.1016/j.jct.2016.10.022).
